Data reported in ChEMBL document CHEMBL4665792 (J Med Chem, 2020).
The source made the active and inactive calls. The rule behind the calls is not given here.

Experiments:
HT-29 [1] = experiment: Antiproliferative activity against human HT-29 cells assessed as reduction in cell viability incubated for 24 hrs by MTT assay; type: functional, cell-based; settings: HT-29, 24 h
Rattus norvegicus [2] = organism: Rattus norvegicus; experiment: Binding affinity to rat liver TrxR assessed as RSGGDILQSGCUG-adduct formation by measuring retention time at 10 uM incubated for 1.5 hrs by LC-MS/MS analysis
[3] = Binding affinity to NAC assessed as sulfhydryl group-adduct formation at 5 mg incubated for 1.5 hrs by LC-MS/MS analysis
HT-29 [4] = experiment: Induction of apoptosis in human HT-29 cells assessed as increase in expression of Bax at 0.25 to 1 uM treated for 24 hrs by Western blot analysis; type: functional, cell-based
[5] = Inhibition of TrxR in human HT-29 cells incubated for 30 mins in presence of insulin, NADPH and Trx by DTNB reagent based assay; type: cell-based
Rattus norvegicus [6] = organism: Rattus norvegicus; experiment: Binding affinity to rat liver TrxR assessed as SGGDILQSGCUG-adduct formation by measuring retention time at 10 uM incubated for 1.5 hrs by LC-MS/MS analysis
HT-29 [7] = experiment: Antiproliferation activity against human HT-29 cells assessed as decrease in number of EdU-positive cells at 0.125 to 0.5 uM incubated for 20 hrs followed by addition of EdU-labelling agent measured after 8 hrs by Hoechst-33258 staining based analysis; type: functional, cell-based; settings: dose microM 0.125-0.500, time 28.0 hrs
HepG2 = experiment: Antiproliferative activity against human HepG2 cells assessed as reduction in cell viability incubated for 24 hrs by MTT assay; type: functional, cell-based; settings: HepG2, 24 h
[8] = Inhibition of TrxR in human HT-29 cells incubated for 60 mins in presence of insulin, NADPH and Trx by DTNB reagent based assay; type: cell-based
[9] = Inhibition of TrxR in human HT-29 cells incubated for 90 mins in presence of insulin, NADPH and Trx by DTNB reagent based assay; type: cell-based
[10] = Inhibition of TrxR (unknown origin) in presence of NADPH by Ellman's method; set-up: species or system Homo sapiens
[11] = Selectivity index, ratio IC50 for human HK2 cells to IC50 for human HT-29 cells
Homo sapiens = organism: Homo sapiens; experiment: Inhibition of TrxR (unknown origin) at 5 uM in presence of NADPH by Ellman's method
HT-29 [12] = experiment: Cell cycle arrest in human HT-29 cells assessed as accumulation at G2/M phase incubated for 24 hrs by propidium iodide staining based flow cytometry; type: functional; settings: dose microM 0.125-0.5, time 24.0 hrs
HT-29 [13] = experiment: Potency index, ratio of Withangulatin A IC50 to test compound IC50 for antiproliferative activity against human HT-29 cells assessed as reduction in cell viability; type: functional
HK-2 = experiment: Cytotoxicity against human HK2 cells assessed as cell viability incubated for 24 hrs by MTT assay; type: cell-based; settings: HK-2, 24 h
HCT-116 [14] = experiment: Inhibition of TrxR in human HCT-116 cells assessed as increase in production of intracellular ROS incubated for 24 hrs by DCFH-DA staining-based flow cytometric analysis; type: cell-based
HT-29 [15] = experiment: Induction of apoptosis in human HT-29 cells assessed as increase in expression of cleaved caspase-3 at 0.25 to 1 uM treated for 24 hrs by western blot analysis; type: functional, cell-based
[16] = Inhibition of Escherichia coli Trx incubated for 1.5 hrs in presence of DTT and insulin
MCF7 = experiment: Antiproliferative activity against human MCF7 cells assessed as reduction in cell viability incubated for 24 hrs by MTT assay; type: functional, cell-based; settings: MCF7, 24 h
HT-29 [17] = experiment: Induction of apoptosis in human HT-29 cells assessed as decrease in expression of Bcl-2 at 0.25 to 1 uM treated for 24 hrs by Western blot analysis; type: functional, cell-based
[18] = Selectivity index, ratio IC50 for human L02 cells to IC50 for human HT-29 cells; type: toxicity; settings: L02 cells versus HT-29 cells, read-out: Ratio IC50
HT-29 [19] = experiment: Inhibition of TrxR in human HT29 cells assessed as increase in p53 to GAPDH expression ratio at 0.25 to 1 uM incubated for 24 hrs by Western blot analysis; type: cell-based
HT-29 [20] = experiment: Binding affinity to sulfhydryl group in human HT-29 cells assessed as decrease in total content of sulfhydryl groups; type: cell-based
HCT-116 [21] = experiment: Antiproliferative activity against human HCT-116 cells assessed as reduction in cell viability incubated for 24 hrs by MTT assay; type: functional, cell-based; settings: HCT-116, 24 h
HT-29 [22] = experiment: Down regulation of TrxR expression in human HT29 cells at 0.25 to 1 uM incubated for 24 hrs by Western blot analysis; type: functional, cell-based
HT-29 [23] = experiment: Induction of mitochondrial membrane potential loss in human HT-29 cells assessed as decrease in red to green fluorescence intensity ratio at 0.125 to 1 uM incubated for 24 hrs by JC-1 dye based fluorescence spectrophotometric analysis; type: functional, cell-based; settings: dose microM 0.125-1, time 24.0 hrs
[24] = Binding affinity to DTT assessed as sulfhydryl group-adduct formation at 5 mg incubated for 1.5 hrs by LC-MS/MS analysis
HT-29 [25] = experiment: Inhibition of TrxR in human HT-29 cells incubated for 24 hrs in presence of insulin, NADPH and Trx by DTNB reagent based assay; type: cell-based
[26] = biological target: T1, Thioredoxin (Homo sapiens) (UniProt P10599); experiment: Inhibition of Trx in human HT-29 cells incubated for 24 hrs in presence of insulin, NADPH and DTT; type: cell-based
T1 sequence (whole entry): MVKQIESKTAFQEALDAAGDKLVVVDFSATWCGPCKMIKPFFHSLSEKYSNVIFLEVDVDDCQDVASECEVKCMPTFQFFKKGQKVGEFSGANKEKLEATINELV

[27] = biological target: T2, Glutathione reductase, mitochondrial (Homo sapiens) (UniProt P00390); experiment: Inhibition of GR in human HT-29 cells incubated for 24 hrs in presence of GSSG and NADPH; type: cell-based
T2 sequence (whole entry): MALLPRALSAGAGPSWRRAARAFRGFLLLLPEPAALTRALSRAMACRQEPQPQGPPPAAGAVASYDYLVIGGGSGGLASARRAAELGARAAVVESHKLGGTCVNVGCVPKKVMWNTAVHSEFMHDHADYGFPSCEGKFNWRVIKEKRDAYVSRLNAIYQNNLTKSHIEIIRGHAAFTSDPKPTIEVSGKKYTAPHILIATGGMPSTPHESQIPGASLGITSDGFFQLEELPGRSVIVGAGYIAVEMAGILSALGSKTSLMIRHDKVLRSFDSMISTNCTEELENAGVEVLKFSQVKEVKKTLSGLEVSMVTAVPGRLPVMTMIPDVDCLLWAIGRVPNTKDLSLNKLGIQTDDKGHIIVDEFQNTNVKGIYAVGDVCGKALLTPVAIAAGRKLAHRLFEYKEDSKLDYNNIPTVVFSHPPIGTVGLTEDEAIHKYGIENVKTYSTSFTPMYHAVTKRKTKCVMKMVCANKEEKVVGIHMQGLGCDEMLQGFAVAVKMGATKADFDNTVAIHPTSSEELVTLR

HT-29 [28] = experiment: Down regulation of Trx expression in human HT29 cells at 0.25 to 1 uM incubated for 24 hrs by Western blot analysis; type: functional, cell-based
[29] = Binding affinity to NAC assessed as sulfhydryl group-adduct formation at 5 mg by online NMR analysis
[30] = Covalent inhibition of TrxR (unknown origin) assessed as covalent bond formation incubated up to 30 mins in presence of NADPH by Ellman's method; set-up: species or system Homo sapiens
HT-29 [31] = experiment: Induction of apoptosis in human HT-29 cells assessed as cell death at 0.25 to 1 uM incubated for 24 hrs by Annexin V-FITC/propidium iodide staining based flow cytometry; type: functional
HT-29 [32] = experiment: Antiproliferation activity against human HT-29 cells assessed as reduction in monoclonal ability incubated for 24 hrs followed by fresh medium supplementation every 2 to 3 days for 14 days by crystal violet staining based analysis; type: functional, cell-based; settings: dose microM 0.015-0.06, time 24.0 hrs
HT-29 [33] = experiment: Inhibition of TrxR in human HT-29 cells assessed as increase in production of intracellular ROS incubated for 24 hrs by DCFH-DA staining-based flow cytometric analysis; type: cell-based
HT-29 [34] = experiment: Induction of apoptosis in human HT-29 cells assessed as increase in expression of cleaved PARP at 0.25 to 1 uM treated for 24 hrs by Western blot analysis; type: functional, cell-based
HT-29 [35] = experiment: Inhibition of TrxR in human HT29 cells assessed as decrease in ASK1 to phosphorylated ASK1 expression ratio at 0.25 to 1 uM incubated for 24 hrs by Western blot analysis; type: cell-based
L02 = experiment: Cytotoxicity against human L02 cells assessed as cell viability incubated for 24 hrs by MTT assay; type: cell-based; settings: L02, 24 h
HT-29 [36] = experiment: Inhibition of GPx in human HT-29 cells incubated for 24 hrs in presence of GSH, NADPH and GR measured at 10 secs interval for 4 mins; type: cell-based; settings: time 1444.0 min

CC(=O)O[C@H]1C=C([C@H](C)[C@H]2CC(C)=C(C)C(=O)O2)[C@@]2(C)CC[C@H]3[C@@H](C[C@H]4O[C@]45[C@@H](OC(=O)/C=C/C(=O)N(C)C)C=CC(=O)[C@]35C)[C@]12O
IC50 (HT-29 [1]): 80 nM | Retention time (Rattus norvegicus [2]): 33.9 min | Activity [3]: Active | Activity (HT-29 [4]): Active | IC50 [5]: 970 nM | Retention time (Rattus norvegicus [6]): 31.7 min | Activity (HT-29 [7]): Active | IC50 (HepG2): 110 nM | IC50 [8]: 870 nM | IC50 [9]: 850 nM | IC50 [10]: 850 nM | Ratio IC50 [11]: 56 | inhibition (Homo sapiens): Active | Activity (HT-29 [12]): Dose-dependent effect | Ratio IC50 (HT-29 [13]): 30 | IC50 (HK-2): 4530 nM | inhibition (HCT-116 [14]): Dose-dependent effect | Activity (HT-29 [15]): Active | IC50 [16]: > 2500 nM | IC50 (MCF7): 330 nM | Activity (HT-29 [17]): Active | selectivity ratio [18]: 66 | inhibition (HT-29 [19]): Active | Activity (HT-29 [20]): Active | IC50 (HCT-116 [21]): 130 nM | Activity (HT-29 [22]): Active | Activity (HT-29 [23]): Active | Activity [24]: Active | inhibition (HT-29 [25]): Active | inhibition [26]: Active | inhibition [27]: Active | Activity (HT-29 [28]): Active | Activity [29]: Active | Ki [30]: 932 nM | Activity (HT-29 [31]): Active | Activity (HT-29 [32]): Dose-dependent effect | inhibition (HT-29 [33]): Dose-dependent effect | Activity (HT-29 [34]): Active | inhibition (HT-29 [35]): Active | IC50 (L02): 5250 nM | inhibition (HT-29 [36]): Active
